Laboratory results published in US9040691B2, “Hydroxymethylaryl-substituted pyrrolotriazines as ALK1 inhibitors” (BAYER INTELLECTUAL PROPERTY GMBH, priority 2011, dated 2015).
pIC50: −log10 of the molar value.

What was measured:
[1] = molecular target: ALK1 kinase (Homo sapiens (Human), UniProt P37023); experiment: In vitro enzyme inhibition using scintillation of incorporated radio label (flashplate assay); type: biochemical; details: biotinylated α-casein, 33P-ATP, 500 nM ATP
[2] = test system: hSmad7 mRNA in BMP9-stimulated HUVEC; experiment: Smad7 target gene induction: HUVEC cell assay and TaqMan expression analysis; type: cell-based, human; details: Homo sapiens, 3 h, 1 ng/ml BMP9 for 3 h, Smad7 mRNA by TaqMan
Method: B-2b. Smad7 Target Gene Induction: HUVEC Cell Assay and TaqMan Expression Analysis
The in vitro potency of ALK1 inhibitors was tested in a cell-based assay. Bone morphogenetic protein 9 (BMP9) induces Smad7 mRNA expression in human vascular endothelial cells (HUVEC) via activation of ALK1.
1.5×10^4 passage 2 HUVECs (Lonza, Basel, Switzerland) per well were seeded in a 96-well plate in EBM-2 medium containing EGM-2 additives and growth factors (Lonza, CC-3156 and CC-4176). After 4 h, the medium was changed to EBM-2 with 0.2% fetal calf serum (FCS) and the cells were starved for 20 h in a humidified incubator at 37° C., 5% CO2. Test compounds were added at 11 different concentrations between 0 and 10 000 nM one hour prior to stimulation of the cells for 3 h with recombinant human BMP9 protein at 1 ng/ml (dissolved in 4 mM hydrochloric acid, 0.1% BSA at 10 μg/ml; R&D Systems, Minneapolis, Minn., USA, 3209BP). Medium was removed, and the cells were lysed in 100 μl RLT buffer (Qiagen, Hilden, Germany). RNA was isolated using the Qiagen RNeasy 96 Kit (order-No. 74182) according to manufacturer's instructions and eluted from the columns with 65 μl RNAse-free water. Reverse transcription for quantitative RT-PCR was carried out with the Omniscript Kit (Qiagen, 205113) in RNAse-free 96-well round-bottom plates. Per well, 6.8 μl of a reaction master mix containing 2 μl 10×RT-buffer, 2 μl dNTPs (5 mM each), 1.6 μl random primer N6 (125 μM), 0.25 μl Rnase Out (40 U/μl) and 1 μl Omniscript Reverse Transcriptase were added. After addition of 13.2 μl of the RNA/water mixture, plate contents were mixed, incubated for 1 h at 37° C. and the total volume adjusted to 100 μl in each well by addition of 80 μl RNAse-free water.
The quantification of human Smad7 mRNA was carried out on a TaqMan using the Eurogentec qPCR Mastermix Plus (RT-QP2X-03-075+; Cologne, Germany) and employing human L32 as housekeeping reference mRNA. Per qPCR reaction, 2.8 μl primer mix, 10 μl master mix, 2.2 μl water and 5 μl cDNA were added. Thermal cycling parameters were 2 min at 50° C., followed by 10 min at 95° C., followed by 40 cycles of melting at 95° C. for 15 sec and annealing/extending at 60° C. for 1 min.
Smad7 mRNA levels induced by 1 ng/ml BMP9 without the addition of any inhibitor were set at 100% induction, and % inhibition was calculated for each test compound with this value. For each test compound, every value was determined in quadruplicate. The IC50 values were determined using Microsoft Excel. The fitting method used was a weighted, unconstrained ML-fit.

ALK1 kinase, sequence (P37023 22-503): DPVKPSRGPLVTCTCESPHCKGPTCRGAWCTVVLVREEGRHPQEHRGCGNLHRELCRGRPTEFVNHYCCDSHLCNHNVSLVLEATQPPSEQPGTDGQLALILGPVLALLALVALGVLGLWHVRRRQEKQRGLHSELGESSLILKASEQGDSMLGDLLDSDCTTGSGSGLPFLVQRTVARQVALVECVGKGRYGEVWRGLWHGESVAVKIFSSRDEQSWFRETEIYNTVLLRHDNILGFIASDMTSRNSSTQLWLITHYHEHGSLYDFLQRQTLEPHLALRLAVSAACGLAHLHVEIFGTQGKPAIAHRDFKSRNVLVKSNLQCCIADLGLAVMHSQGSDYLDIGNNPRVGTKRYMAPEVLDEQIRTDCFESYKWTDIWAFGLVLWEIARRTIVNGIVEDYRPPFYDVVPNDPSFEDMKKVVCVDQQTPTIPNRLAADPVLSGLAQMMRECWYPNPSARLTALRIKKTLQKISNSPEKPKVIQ

SMILES | pIC50 [1] | pIC50 [2]
CCCc1cc(-c2cc(F)c(CO)c(F)c2)c2c(N)ncnn12 [Example 2, [4-(4-Amino-7-propylpyrrolo[2,1-f][1,2,4]triazin-5-yl)-2,6-difluorophenyl]methanol] | 8.55 | 6.80
Nc1nc(-c2cc(-c3ccc(CO)cc3)c3c(N)ncnn23)cs1 [Example 17, {4-[4-Amino-7-(2-amino-1,3-thiazol-4-yl)pyrrolo[2,1-f][1,2,4]triazin-5-yl]phenyl}methanol] | 8.70 | 6.54
Nc1ncnn2c(C(O)C3CC3)cc(-c3cc(F)c(CO)c(F)c3)c12 (centres unmarked) [Example 5, {4-Amino-5-[3,5-difluoro-4-(hydroxymethyl)phenyl]pyrrolo[2,1-f][1,2,4]triazin-7-yl}(cyclopropyl)methanol] | 8.89 | 6.54
Nc1ncnn2c(CN3CCOCC3)cc(-c3ccc(CO)c(F)c3)c12 [Example 21, {4-[4-Amino-7-(morpholin-4-ylmethyl)pyrrolo[2,1-f][1,2,4]triazin-5-yl]-2-fluorophenyl}methanol] | 7.60 | 6.10
Nc1ncnn2c(CCCO)cc(-c3ccc(CO)cc3)c12 [Example 3, 3-{4-Amino-5-[4-(hydroxymethyl)phenyl]pyrrolo[2,1-f][1,2,4]triazin-7-yl}propan-1-ol] | 8.40 | 6.92
Nc1ncnn2c(CN3CCOCC3)cc(-c3cc(F)c(CO)c(F)c3)c12 [Example 20, {4-[4-Amino-7-(morpholin-4-ylmethyl)pyrrolo[2,1-f][1,2,4]triazin-5-yl]-2,6-difluorophenyl}-methanol] | 7.52 | 5.23
Nc1ncnn2c([C@@H]3CCCNC3)cc(-c3cc(F)c(CO)c(F)c3)c12 [Example 11, (4-{4-Amino-7-[(3R)-piperidin-3-yl]pyrrolo[2,1-f][1,2,4]triazin-5-yl}-2,6-difluorophenyl)methanol] | 8.72 | 6.74
Nc1ncnn2c(CN3CCOCC3)cc(-c3ccc(CO)c(Cl)c3)c12 [Example 22, {4-[4-Amino-7-(morpholin-4-ylmethyl)pyrrolo[2,1-f][1,2,4]triazin-5-yl]-2-chlorophenyl}methanol] | 7.77 | 5.51
CCCc1cc(-c2ccc(CO)cc2)c2c(N)ncnn12 [Example 1, [4-(4-Amino-7-propylpyrrolo[2,1-f][1,2,4]triazin-5-yl)phenyl]methanol] | 8.70 | 7.03
Nc1ncnn2c1c(-c1cc(F)c(CO)c(F)c1)cc2[C@H]1CC[C@H](O)CC1 [Example 7, trans-4-[4-Amino-5-[3,5-difluoro-4-(hydroxymethyl)phenyl]pyrrolo[2,1-f][1,2,4]triazin-7-yl]-cyclohexanol] | 8.70 | 6.85
